Assay results: patent publication US5103013A, “Dithioketene derivatives, pharmaceutical compositions containing the same and uses thereof” (Yuhan Corporation, Ltd., priority 1988, dated 1992)

Tests used:
[1] = system: serum ALT increase induced by CCl4; experiment: Determination of 50% effective dose (ED50) against CCl4-induced serum ALT increase; type: in vivo; details: Mus musculus; mice, oral 50, 25, 12.5 or 6.25 mg/kg, 6 h before CCl4; serum ALT 24 h after CCl4; estimated from dose-response curves; read-out: ED50 (50% effective dose of test compound)
Experimental: The various doses of test compounds were administered to mice, followed by the treatment with CCl4 after 6 hours. 24 Hours after the CCl4 treatment, the serum ALT level of the animals were determined. The hepatoprotective effect of the test compounds and the doses were plotted to form doseresponse curves, from which the ED50 doses of the test compounds were estimated.
The experimental animals were divided into the normal, the CCl4 treated and the test compound treated groups. Each group consisted of 8 mice with body weight of 20-25 grams. The test compounds were suspended in 0.2% CMC--Na solution and administered orally at a dose of 50 mg, 25 mg, 12.5 mg or 6.25 mg/125 ml/kg body weight. Only the vehicle, 0.2% CMC--Na solution, was administered to the normal and to the CCl4 treated group instead of the test compound suspension. 6 Hours later, the CCl4 solution in olive oil was administered orally to the CCl4 treated and the test compound treated groups at the dose of 50 ul/25 ml oilve oil/kg body weight. The norm group was administered olive oil only at the same dose. 24 Hours after the CCl4 administration, blood samples were collected from the orbital sinuses of the animals and the sera were obtained by centrifugation. The serum ALT activities were monitored and the hepatoprotective effect of the test compounds were calculated by the same method as described in experiment 1. The percentages were plotted against the corresponding doses of the test compounds to make dose-response curves, from which the 50% effective dose of test compound was estimated.

[2] = system: serum alanine aminotransferase (ALT) increase induced by CCl4; experiment: Protective effect against acute hepatic damage induced by carbon tetrachloride (suppression of serum ALT increase); type: in vivo; details: Mus musculus; mice, oral 50 mg/kg in 0.2% CMC-Na, 6 h before oral CCl4 (50 ul/kg); serum ALT 24 h after CCl4; read-out: Inhibitory (%) (protective effect of test compound against increase of serum ALT activity induced by CCl4)
Experimental: Carbon tetrachloride (CCl4) is a well-known hepatotoxic agent, thus widely used to produce experimental animal models for screening the potential drugs acting upon hepatic diseases. In this experiment test compounds were administered to mice prior to treatment with CCl4. 24 Hours after the CCl4 treatment, the animals were sacrificed and serum alanine aminotransferase (ALT) levels were determined. The hepatoprotective effect of a test compound was evaluated by the suppressive action against the increase of serum ALT induced by CCl4.
The experimental animals were divided into the normal, the CCl4 treated and the test compound treated groups. Each group consisted of 8 mice with body weight of 20-25 grams. The test compounds were suspended in 0.2% sodium carboxymethylcellulose (CMC--Na) solution and administered orally at the dose of 50 mg/125 ml/kg body weight. Only the vehicle 0.2% CMC--Na solution, was administered to the normal and to the CCl4 treated group instead of the test compound suspension.
6 Hours after the drug administration, the CCl4 solution in olive oil was administered orally to the CCl4 treated-group and the test compound treated group at the dose of 50 ul/25 ml olive oil/kg body weight. The normal group was administered with olive oil only at the same dose. 24 Hours after the CCl4 administration, blood samples were collected from the orbital sinus of the animals and the sera were monitored using an automatic blood analyzer (Gilford, SBA 300). The hepatoprotective effect of the test compounds was expressed by the suppressive percentage against the increase of serum ALT level induced by CCl4 calculated by the following formula; [formula]

[3] = Acute toxicity of test compounds (oral LD50); details: mouse, in vivo, male ICR mice, 0.2% CMC-Na suspension, dead mice counted for 14 days, read-out: LD50 of Test Compound (column head prints ED50)
Experimental: Each test compound was suspended in 0.2% CMC--Na solution in various concentrations to make test suspensions. The test suspensions were administered orally to male ICR mice (10 in each group) at various doses. The number of dead mice was counted for 14 days and the value of median lethal dose (LD50, g/kg) was calculated by the Hitchifield-Wilcoxon method.

SMILES	ED50 [1]	inhibition in vivo at 50 mg/kg [2]	LD50 at 336 h [3]
CC(C)OC(=O)C(C(=O)Nc1nncs1)=C1SCS1 [Example 28, Isopropyl 2-(1,3-dithietan-2-ylidene)-2-[N-(1,3,4-thiadiazol-2-yl)carbamoyl]acetate]	< 6.25 mg/kg	100%	> 5000 mg/kg
CC(C)OC(=O)C(C(=O)Nc1nccs1)=C1SCS1 [Example 22, Isopropyl 2-(1,3-dithietan-2-ylidene)-2-[N-(2-thiazolyl)carbamoyl]acetate]	< 6.25 mg/kg	100%	> 5000 mg/kg
CC(C)OC(=O)C(C(=O)Nc1ccccn1)=C1SCCS1 [Example 32, Isopropyl 2-(1,3-dithiolan-2-ylidene)-2-[N-(2-pyridyl)carbamoyl]acetate]	< 50 mg/kg	85%	
CC(C)OC(=O)C(C(N)=O)=C1SCS1 [Example 13, Isopropyl 2-(1,3-dithietan-2-ylidene)-2-carbamoylacetate]	> 50 mg/kg	28%	< 5000 mg/kg
CC(C)OC(=O)C(C(=O)Nc1ccccc1)=C1SCS1 [Example 18, Isopropyl 2-(1,3-dithietan-2-ylidene)-2-(N-phenylcarbamoyl)acetate]	7 mg/kg	100%	
CC(C)OC(=O)C(C(=O)Nc1nc(-c2ccccc2)cs1)=C1SCS1 [Example 27, Isopropyl 2-(1,3-dithietan-2-ylidene)-2-[N-(4-phenyl-2-thiazolyl)carbamoyl]acetate]	> 50 mg/kg	11%	
Cc1csc(NC(=O)C(C(=O)OC(C)C)=C2SCS2)n1 [Example 24, Isopropyl 2-(1,3-dithietan-2-ylidene)-2-[N-(4-methyl-2-thiazolyl)carbamoyl]acetate]	< 6.25 mg/kg	100%	> 5000 mg/kg
CC(C)OC(=O)C(C(=O)Nc1ccc(C(F)(F)F)cc1)=C1SCCS1 [Example 21, Isopropyl 2-(1,3-dithiolan-2-ylidene)-2-[N-(4-trifluoromethylphenyl)carbamoyl]acetate]	< 50 mg/kg	98%	
CC(C)OC(=O)C(C(=O)NCc1ccccc1)=C1SCS1 [Example 15, Isopropyl 2-(1,3-dithietan-2-ylidene)-2-(N-benzylcarbamoyl)acetate]	10 mg/kg	97%	
CC(C)OC(=O)C(C(=O)Nc1ccccn1)=C1SCS1 [Example 29, Isopropyl 2-(1,3-dithietan-2-ylidene)-2-[N-(2-pyridyl)carbamoyl]acetate]	10 mg/kg	100%	> 5000 mg/kg
CC(C)OC(=O)C(C(=O)Nc1ccc(C(F)(F)F)cc1)=C1SCS1 [Example 19, Isopropyl 2-(1,3-dithietan-2-ylidene)-2-[N-(4-trifluoromethylphenyl)carbamoyl]acetate]	6.25 mg/kg	100%	
Cc1csc(NC(=O)C(C(=O)OC(C)C)=C2SCCS2)n1 [Example 26, Isopropyl 2-(1,3-dithiolan-2-ylidene)-2-[N-(4-methyl-2-thiazolyl)carbamoyl]acetate]	< 50 mg/kg	98%	
